According to BigSolDB 2.1:

Cc1cc(=O)oc2cc(N)ccc12
solubility (mole fraction)
Conditions	278.15 K	283.15 K	288.15 K	293.15 K	298.15 K	303.15 K	308.15 K	313.15 K	318.15 K	323.15 K
in DMF	0.0579	0.0725	0.0902	0.108	0.131	0.156	0.189	0.219	0.251	0.292
in ethanol	0.000941	0.00101	0.00117	0.00123	0.00134	0.00161	0.00177	0.00214	0.00233	0.00262
in ethylene glycol	0.000384	0.000432	0.000531	0.000663	0.000812	0.000974	0.00112	0.0013	0.00145	0.00163
in isopropanol	0.00103	0.00114	0.00127	0.00152	0.00173	0.00188	0.00208	0.00237	0.00261	0.00294
in water	1.07e-05	1.38e-05	1.74e-05	2.18e-05	2.75e-05	3.41e-05	4.18e-05	5.14e-05	6.27e-05	7.57e-05
